Assay results reported in US20080022467A1, “Disazo dyes and their preparation and use” (ILFORD Imaging Switzerland GmbH, priority 2006, published 2008).

How the values were obtained:
Assay type in all cases: physicochemical
[1] = Dye solubility (saturated aqueous solution, spectrophotometric); settings: summary of Table 2
Method: Dye solubility was determined with a spectrophotometer in the UV and in the visible spectral region. The spectra of the pure disazo dyes according to the invention were measured in a buffered aqueous solution at a value of pH of 7.0. Saturated aqueous solutions of the dyes were prepared at a temperature of 50° C. These solutions were afterwards cooled down to room temperature and diluted for the measurements after a waiting time of 24 hours in such a way that the absorption at the absorption maximum was between 0.8 and 1.5. This dilution factor allows the calculation of dye solubility.

[2] = Light stability of printed patches (Weather-Ometer, xenon lamp); parameters: key to Light Stability (Class) on Recording Sheet A / Light Stability (Class) on Recording Sheet B / Light Stability (Class) on Recording Sheet C / Light Stability (Class) on Recording Sheet D / Light Stability (Class) on Recording Sheet E / Light Stability (Class) on Recording Sheet F / Light Stability (Class) on Recording Sheet G: A: excellent; B: good; C: satisfactory; D: unsatisfactory; settings: for Light Stability (Class) on Recording Sheet A: A: HP Printing Paper HPP 1122 (paper), 20° C., 50% relative humidity; for Light Stability (Class) on Recording Sheet A / Light Stability (Class) on Recording Sheet B / Light Stability (Class) on Recording Sheet C / Light Stability (Class) on Recording Sheet D / Light Stability (Class) on Recording Sheet E / Light Stability (Class) on Recording Sheet F / Light Stability (Class) on Recording Sheet G: 20 megalux hours; for Light Stability (Class) on Recording Sheet B: B: HP Premium Plus (polymer based); for Light Stability (Class) on Recording Sheet C: C: ILFORD Galerie Smooth Glossy (nanoporous); for Light Stability (Class) on Recording Sheet D: D: ILFORD Printasia Premium Photo Glossy Paper (nanoporous); for Light Stability (Class) on Recording Sheet E: E: ILFORD Galerie Classic Gloss Paper (polymer based); for Light Stability (Class) on Recording Sheet F: F: EPSON Premium Glossy Photo Paper (nanoporous); for Light Stability (Class) on Recording Sheet G: G: CANON Photo Paper Pro PR-101 (nanoporous)
Method: (§1) The present invention, as far as it relates to recording liquids, is illustrated by the following examples using the disazo dyes of Table 1 according to the invention and dyes representing the state of the art. For each dye, 100 g of recording liquid were prepared by heating the necessary amount of dye (2.0 g-5.0 g), 6.0 g of ethylene glycol, 3.0 g of propylene-1,2-glycol, 3.0 g of 1-methyl-2-pyrrolidone, 0.3 g of an aqueous solution (50%) of Olin® 10G (available from Arch Chemicals Inc., Norwalk, USA), 0.3 g of Surfinol® 465 (available from Air Products and Chemicals Inc., Allentown, USA) and 0.1 g of Mergal® K 10N (available from Riedel-de-Haën, Seelze, Germany) together with water at a temperature of 50° C. under stirring for approximately 1 hour. The resulting solution was cooled down to a temperature of 20° C., its value of pH was adjusted to 7.5 and the solution was passed through a Millipore® filter of 0.3 μm pore diameter. The dye quantity was adjusted in such a way that the optical density of the printed image was similar for all dyes.
(§2) Homogeneously colored square patches with an approximate density of 1.40 were then printed, using these recording liquids, with an ink jet printer Canon BJC 8500 onto the following recording sheets: • A: HP Printing Paper HPP 1122 (paper) • B: HP Premium Plus (polymer based recording sheet) • C: ILFORD Galerie Smooth Glossy (nanoporous recording sheet) • D: ILFORD Printasia Premium Photo Glossy Paper (nanoporous recording sheet) • E: ILFORD Galerie Classic Gloss Paper (polymer based recording sheet) • F: EPSON Premium Glossy Photo Paper (nanoporous recording sheet) • G: CANON Photo Paper Pro PR-101 (nanoporous recording sheet)
The printed samples were irradiated using a Weather-Ometer® Ci35A (available from Atlas Material Testing Technology, Chicago, USA) with a 6500 W xenon lamp at a temperature of 20° C. and relative humidity of 50% until an illumination of 20 megalux hours was reached. The density loss was measured with a densitometer Spectrolino®. The percent density loss of initial density gives an indication of the light stability of the dyes on the printed recording sheet.

[3] = Stability against degradation by ozone of printed patches; parameters: key: A: excellent; B: good; C: satisfactory; D: unsatisfactory; settings: ozone 1 ppm, 30° C., 50% relative humidity; for Resistance against Degradation by Ozone (Class) on Recording Sheet C: C: ILFORD Galerie Smooth Glossy (nanoporous); for Resistance against Degradation by Ozone (Class) on Recording Sheet D: D: ILFORD Printasia Premium Photo Glossy Paper (nanoporous); for Resistance against Degradation by Ozone (Class) on Recording Sheet F: F: EPSON Premium Glossy Photo Paper (nanoporous); for Resistance against Degradation by Ozone (Class) on Recording Sheet G: G: CANON Photo Paper Pro PR-101 (nanoporous)
Method: as §1, §2
The optical density of the colored square patches was measured with a Spectrolino® densitometer. Afterwards, the printed samples were stored for a predetermined time (for example 48 hours) in an ozone chamber, model 903 (available from Satra/Hampden, Great Britain) at a temperature of 30° C., a relative humidity of the air of 50% and an ozone concentration of 1 ppm at a velocity of the circulating, ozone containing air of 13 mm/s. After storage, the samples were re-measured. The density differences of these two measurements, expressed as per cent of the initial density, are an indication of the amount of dye loss due to the exposure to ozone.

SMILES	solubility (in words) [1]	Light Stability (Class) on Recording Sheet A [2]	Light Stability (Class) on Recording Sheet B [2]	Light Stability (Class) on Recording Sheet C [2]	Light Stability (Class) on Recording Sheet D [2]	Light Stability (Class) on Recording Sheet E [2]	Light Stability (Class) on Recording Sheet F [2]	Light Stability (Class) on Recording Sheet G [2]	light stability on all recording sheets (in words) ([2]; all recording sheets, summary of Table 4)	Resistance against Degradation by Ozone (Class) on Recording Sheet C [3]	Resistance against Degradation by Ozone (Class) on Recording Sheet D [3]	Resistance against Degradation by Ozone (Class) on Recording Sheet F [3]	Resistance against Degradation by Ozone (Class) on Recording Sheet G [3]
O=S(=O)([O-])c1cc(/N=N/c2ccc(Nc3nc(NCCCN4CCOCC4)nc(Nc4ccc(/N=N/c5cc(S(=O)(=O)[O-])c6cccc(S(=O)(=O)[O-])c6c5)cc4)n3)cc2)cc2c(S(=O)(=O)[O-])cccc12.[Na+].[Na+].[Na+].[Na+] [Dye No. IV, reference compound]	equally high water solubility	C	A	D	C	C	B	B	satisfactory or even unsatisfactory light stability	A	B	A	A
O=C([O-])c1cc(Nc2nc(Nc3ccc(N=Nc4cc(S(=O)(=O)[O-])c5cccc(S(=O)(=O)[O-])c5c4)cc3)nc(Nc3ccc(N=Nc4cc(S(=O)(=O)[O-])c5cccc(S(=O)(=O)[O-])c5c4)cc3)n2)cc(C(=O)[O-])c1.[Na+].[Na+].[Na+].[Na+].[Na+].[Na+] [Dye No. 18]		B	A	B	B	B	B	B		A	A	A	A
